Legend:
Type in all cases: cell-based, mouse
[1] = system: cellular cholesterol efflux, Neuro2a cells; assay: Cellular cholesterol efflux from ABCA1-expressing Neuro2a cells; settings: expression of ABCA1 and addition of apoA-I (10 μg/ml, 6 h)
Protocol: The efflux experiments were performed as described (13). Briefly, Neuro2a cells were labeled with 1 μCi/ml [1.2-^3H(N)]-cholesterol (PerkinElmer Life Sciences) in DMEM containing 5 mM methyl-β-cyclodextrin:cholesterol at a molar ratio of 8:1 for 15 min at 37° C. After washing, the cells were equilibrated in DMEM, 0.2% bovine serum albumin for 30 min and then used for efflux experiments. […] The cells were lysed in 0.1 M sodium hydroxide, 0.1% SDS, and radioactivity was determined by liquid scintillation counting. Efflux was expressed as the percentage of radioactivity in the medium relative to the total radioactivity in cells and medium.
(§1) Cellular cholesterol mass was also measured.

[2] = system: Aβ secretion from Neuro2a-APPSw cells; assay: Aβ secretion from ABCA1- or mock-transfected Neuro2a-APPSw cells with added apolipoproteins; settings: apolipoprotein added for 6 h, compared with ABCA1 without apolipoprotein
Protocol: FIGS. 3A-3C: ABCA1 overexpression inhibits Aβ secretion.
FIG. 4: The effect of apoE isoforms on Aβ secretion.
as §1
Because apoE is a major apolipoprotein in the central nervous system and the apoE4 isoform is associated with increased risk of AD (19, 20), the effects of apoE on Aβ formation was also examined. […] Again, the major effect was attributable to ABCA1 expression alone.

[3] = system: Aβ generation from C99 in Neuro2a cells; assay: γ-Secretase cleavage of C99 Myc in Neuro2a cells transfected with ABCA1; settings: Neuro2a cells transfected with C99 Myc and ABCA1; apoA-I added; data not shown
Protocol: FIGS. 5A-5B: ABCA1 overexpression decreases β-cleavage of APPSw and γ-cleavage of the 99-amino acid C-terminal fragment of APP. A, Neuro2a-APPSw cells were transfected with either empty vector or vector containing ABCA1 cDNA. The β-cleavage product C99 was detected by immunoprecipitation of cell lysates with antibody 4G8 followed by immunoblotting with 6E10. Cellular APP (cAPP) level was measured by immunoblotting cell lysates. The data are the means±S.E. for five separate experiments; *, p<0.01 compared with mock (mk) transfected. B, Neuro2a cells were transfected with vector containing either C99 Myc alone or C99 Myc with ABCA1. Aβ was detected as in FIG. 3. Cellular C99 was detected by immunoprecipitation with anti-Myc antibody followed by Western blot with 6E10. The data are shown for three separate experiments conducted in duplicate. #, p<0.05 compared with C99 transfected alone.
Both β and γ-cleavage of APP are required for the generation of Aβ. A series of experiments were carried out to determine which step is affected by ABCA1 overexpression. To measure β-cleavage, the β-secretase cleavage product was immunoprecipitated (C99 ) from cell lysates. There was an 85% decrease of cellular C99 in Neuro2a-APPSw cells transiently transfected with ABCA1 compared with mock transfected control (FIG. 5A). γ-Secretase mediates the final step in Aβ generation (1). […]

[4] = system: efflux of cellular phospholipids, Neuro2a cells; assay: Cellular phospholipid efflux from ABCA1-expressing Neuro2a cells; settings: expression of ABCA1 and addition of apoA-I
[5] = system: Aβ secretion from Neuro2a-APPSw cells; assay: Secreted Aβ from Neuro2a-APPSw cells after LXR activation (immunoprecipitation and immunoblotting)
Protocol: Neuro2a-APPSw cells were treated with LXR activators (TO or 22(R)-hydroxycholesterol) and in some cases also with RXR activator (9-cis-retinoic acid). Secreted Aβ (sAβ) was detected in medium by immunoprecipitation and immunoblotting. Cellular APP (cAPP) levels were measured by immunoblotting cell lysates. Western blots were scanned and quantified by ImageQuant. The bar graphs show the combined results (means±S.E.) from at least three independent experiments. A, cells were treated with increasing amounts of TO. B, cells were treated with mock transfection (control) or 1 μM TO, μM 9-cis-RA. C, cells were treated with mock transfection or 5 μM 22(R)-hydroxycholesterol (22(R)OHchol), 10 μM 9-cis-RA. #, p<0.05 compared with control. *, p<0.01 compared with control. […]
In experiments with LXR activation, the cells were first induced with activators for 24 h in DMEM, 5% lipoprotein-deficient serum. […] The immunoblots were developed using the ECL system (Pierce) scanned and quantified by ImageQuant (Molecular Dynamics). Quantitation of Aβ40 and Aβ42 was performed using a commercial Aβ enzyme-linked immunosorbent assay kit. […]
The cells were treated with increasing doses of the synthetic LXRα/β activator TO901317 (“TO”), and Aβ secretion into medium was measured by immunoprecipitation and Western blotting (FIG. 1A).

Row | Compound | increase in cellular cholesterol efflux [1] | further change in Aβ on adding apolipoprotein to ABCA1-expressing cells [2] | further decrease in Aβ generation from C99 [3] | increase in efflux of cellular phospholipids [4] | reduction in secretion of Aβ into medium ([5]; 1 μM TO, 24 h induction, 4 h medium, immunoprecipitation and Western blotting (FIG. 1A)) [%] | amount of soluble form of APP (APPsα) in medium ([5]; administration of the LXR activator, data not shown)
1 | apoA-I: purified human apolipoprotein A-I, from Biodesign | 1.0±0.1 % of total cellular cholesterol | only a slight further decrease | did not provide a further decrease | 1.9 % of total cellular choline-labeled lipids |  | 
2 | O=S(=O)(c1ccccc1)N(CC(F)(F)F)c1ccc(C(O)(C(F)(F)F)C(F)(F)F)cc1 [TO901317] |  |  |  |  | ~50 | not significantly changed

— patent US20060069076A1, “LXR/RXR-related methods and compositions” (priority 2004, published 2006)
